In patent US5135938A, “Leukotriene antagonists” (SmithKline Beecham Corporation, priority 1990, dated 1992):
Where a name gives a salt, the structure may show the parent alone.

Biological target: T1, LTD4 induced contraction of guinea pig tracheal spiral strips (Cavia porcellus, UniProt Q2NNR5)
T1 construct: Guinea pig (adult male albino Hartley strain) tracheal spiral strips; from tissue; host or cells: guinea pig trachea (adult male albino Hartley strain), spiral strips
T1 sequence (Q2NNR5 1-340): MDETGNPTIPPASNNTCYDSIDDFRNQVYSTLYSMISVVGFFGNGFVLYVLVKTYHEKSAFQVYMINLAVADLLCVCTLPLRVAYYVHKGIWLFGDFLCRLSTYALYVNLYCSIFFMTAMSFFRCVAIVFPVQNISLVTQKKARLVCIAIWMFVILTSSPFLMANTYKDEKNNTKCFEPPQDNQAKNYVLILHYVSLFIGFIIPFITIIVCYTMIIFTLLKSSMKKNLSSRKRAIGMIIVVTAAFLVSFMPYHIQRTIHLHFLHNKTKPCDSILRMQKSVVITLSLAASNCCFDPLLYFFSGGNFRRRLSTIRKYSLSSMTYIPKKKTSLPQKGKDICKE
Experiment: Inhibition of leukotriene (LTD4) induced contraction of guinea pig tracheal tissues in vitro
Type: cell-based
Settings: LTD4 concentration-response on guinea pig tracheal strips, 30 minutes pretreatment with test compound; KB from EC30 shift; current average where tested more than once; read-out: In Vitro Log K8 (-log KB, leukotriene antagonist activity) (converted)
Description: The leukotriene antagonist activity of the compounds of this invention is measured by the ability of the compounds to inhibit the leukotriene induced contraction of guinea pig tracheal tissues in vitro. The following methodology was employed:
In vitro: Guinea pig (adult male albino Hartley strain) tracheal spiral strips of approximate dimensions 2 to 3 mm cross-sectional width an 3.5 cm length were bathed in modified Krebs buffer in jacketed 10 ml tissue bath and continuously aerated with 95% O2 /5% CO2. The tissues were connected via silk suture to force displacement transducers for recording isometric tension. The tissues were equilibrated for 1 hr., pretreated for 15 minutes with meclofenamic acid […] to remove intrinsic prostaglandin responses, and then pretreated for an additional 30 minutes with either the test compound or vehicle control. A cumulative concentration-response curve for LTD4 on triplicate tissues was generated by successive increases in the bath concentration of the LTD4. In order to minimize intertissue variability, the percentage of the maximum response obtained to a reference agonist, carbachol […].
Calculations: The averages of the triplicate LTD4 concentration-response curves both in the presence and absence of the test compound were plotted on log graph paper. The concentration of LTD4 needed to elicit 30% of the contraction elicited by carbachol was measured and defined as the EC30. The -log KB value for the test compound was determined by the following equations: [formula] 2. KB =concentration of test compound/(X-1)
The antagonist activity of representative compounds of this invention is tabulated below in Table I (other data appears in the preparative examples). The -log KB values were calculated from the above test protocol. Where compounds were tested more than once, the -log KB values given herein represent the current average data.

SMILES | Kb [nM]
O=C(O)CCCn1nnnc1SC(CC(=O)O)c1ccccc1CCCCCCCCc1ccccc1 (stereo not drawn) [Example 8, 3-[2-(8-Phenyloctyl)phenyl]-3-[[1-(3-carboxypropyl)-5-tetrazolyl]thio]propanoic acid] | 1000
CCCCCCCCCCCCc1ccccc1C(Sc1nnnn1CCCC(=O)O)C(=O)O (stereo not drawn) [Example 3, 2-(2-Dodecylphenyl)-2-[[1-(3-carboxypropyl)-5-tetrazolyl]thio]acetic acid] | 39.8
CCCCCCCCCCCCc1ccccc1C(CC(=O)O)Sc1nnnn1CCCC(=O)O (stereo not drawn) [Example 6, 3-(2-dodecylphenyl)-3-[[1-(3-carboxypropyl)-5-tetrazolyl]thio]propanoicacid] | 251
O=C(O)CC(Sc1nnnn1CC(=O)O)c1ccccc1CCCCCCCCc1ccccc1 (stereo not drawn) [Example 7, 3-[2-(8-Phenyloctyl)phenyl]-3-[(1-carboxymethyl-5-tetrazolyl)thio]propanoic acid] | 501
CCCCCCCCCCCCc1ccccc1C(Sc1nnnn1CS(=O)(=O)O)C(=O)O (stereo not drawn) [Example 4, 2-(2-Dodecylphenyl)-2-[(1-sulfomethyl-5-tetrazolyl)thio]acetic acid ammonium salt hydrate] | 398

Second part, the compound after the results:

Kb [nM] | SMILES
200 | CCCCCCCCCCCCc1ccccc1C(Sc1nc(C)c(C(=O)O)s1)C(=O)O (stereo not drawn) [Example 15, 2-(2-Dodecylphenyl)-2-(5-carboxy-4-methyl-2-thiazolylthio)acetic acid]
100 | O=C(O)CCCn1nnnc1SC(c1ccccc1CCCCCCCCc1ccccc1)C(O)C(=O)O (stereo not drawn) [Example 13, 3-[2-(8-phenyloctyl)phenyl]-3-[[1-(3-carboxypropyl)-5-tetrazolyl]thio]-2-hydroxypropanoic acid]
100 | O=C(O)Cn1nnnc1SC(c1ccccc1CCCCCCCCc1ccccc1)C(O)C(=O)O (stereo not drawn) [Example 14, 3-[2-(8-phenyloctyl)phenyl]-3-[(1-carboxymethyl-5-tetrazolyl)thio]-2-hydroxypropanoic acid]
316 | CCCCCCCCCCCCc1ccccc1C(SCCc1nnn[nH]1)C(=O)O (stereo not drawn) [Example 12, 2-(2-dodecylphenyl)-2-[2-(tetrazol-5-yl)ethylthio]acetic acid]
